The text below walks through data of patent US20250261637A1, “DISINFECTANT COMPOSITIONS AND METHODS THEREOF” (HALOMINE INC., priority 2022, published 2025).

In data set [1] the test system is S. aureus. As to the kind of experiment: MIC testing of chlorinated HASA. Type of data set: cell-based, Staphylococcus aureus. As to conditions: for MIC: Staphylococcus aureus. The method, then: (§1) NaDCC, NaOC, HOC, and HASA-Cl solutions were prepared at chlorine concentrations of 300, 250, 200, 150, 100, and 50 ppm and mixed with a S. aureus suspension containing […] as an organic load for 30 seconds. After 30 seconds, the mixtures were neutralized with Na2S2O3 to quench oxidative chlorine, added to tryptic soy broth (TSB), and incubated (e.g., for 48 hours at 37° C.). Following the incubation, samples were assessed for S. aureus growth inhibition to determine the minimum inhibitory concentration (MIC). […] To determine the minimum biocidal concentration (MBC), samples were plated on agar and viable colonies counted. […] The analysis was run in duplicate with a 8.34 log inoculum concentration of S. aureus in the first analysis and a 8.37 log inoculum concentration of S. aureus in the second analysis.
(§2) NaDCC, NaOCl, HOC, and HASA-Cl solutions were prepared at chlorine concentrations of 800, 700, 600, 500, 400, 300, 200, and 100 ppm and mixed with a suspension of S. aureus containing 10% FBS or 15% as an organic load and reacted for 1 minute or 5 minutes. After reacting, the mixtures were neutralized with Na2S2O3 to quench oxidative chlorine, added to tryptic soy broth (TSB), and incubated (e.g., for 48 hours at 37° C.). Following the incubation, samples were assessed for S. aureus growth inhibition to determine the MIC. […] To determine the MBC, samples were plated on agar and viable colonies counted. […] The analysis was run in duplicate with a 8.23 log inoculum concentration of S. aureus.
(§3) Three solutions of HASA-Cl (HASA-Cl_D, HASA-Cl_E, and HASA-Cl_F) were prepared by chlorinating HASA55 in aqueous HOCl at varying HASA55:chlorine stoichiometric molar ratios, isolating the chlorinated HASA55-Cl polymer, and dissolving the chlorinated polymer in water. The three HASA-Cl solutions and HASA-HOCl, NaDCC, NaOCl, and HOCl solutions were diluted to chlorine concentrations of 300, 250, 200, 150, 100, and 50 ppm, mixed with a suspension of S. aureus with 5% FBS organic load, and reacted for 30 seconds. After reacting, the mixtures were neutralized to remove oxidative chlorine, added to tryptic soy broth, and incubated (e.g. for 48 hours at 37° C.). Following the incubation, samples were assessed for S. aureus growth inhibition to determine the MIC. To determine the MBC, samples were plated on agar and viable colonies counted. […] The analysis was run in duplicate with a 8.34 log inoculum concentration of S. aureus in the first experiment and a 8.37 log inoculum concentration of S. aureus in the second experiment.

Data set [2] can be described thus: pH of chlorinated HA and HASA55 solutions over time. It counts as physicochemical. As to conditions: HOCl series, 10 weeks. The method, then: (§4) Various aqueous electrophilic halogen solutions were used to dissolve HASA55 powder. Undiluted disinfexol stock solution was used as HOCl source, Clorox® germicidal bleach diluted 1:48 volumetrically was used as a NaOCl source, and a stock solution of Purtab prepared by dissolving 1 tablet in a quart of water was used as a NaDCC source. Various samples of HASA55 solutions chlorinated with HOCl, NaOCl, and NaDCC were prepared by dissolving HASA55 in the electrophilic halogen source solutions at stoichiometric molar ratios of 2:1, 1:1, 1:2, 1:4, and 1:8 HASA55:electrophilic halogen source for HOCl and NaOCl, and at stoichiometric molar ratios of 4:1, 2:1, 1:1, 1:2, and 1:4 HASA55:NaDCC. Various samples of HA monomers chlorinated with HOCl, NaOCl, and NaDCC were prepared by dissolving HA monomer in the electrophilic halogen source solutions at stoichiometric molar ratios of 2:1, 1:1, 1:2, 1:3, and 1:6 HA:electrophilic halogen source for HOCl and NaOCl, and at stoichiometric molar ratios of 4:1, 2:1, 1:1, 1:1.5, and 1:3 for HA:NaDCC. The resulting solutions were sealed and stored in air-tight bottles to assess the amount of available chlorine and the pH of the solution over time. Available chlorine concentrations were calculated according to a spectrophotometric method using a DPD indicator as detailed above and pH was calculated using a pH meter.

The subject of data set [3] is S. aureus. The data set can be described thus: MBC testing of chlorinated HASA. As to conditions: for MBC: Staphylococcus aureus. It counts as cell-based, Staphylococcus aureus. The method, then: as §1, §2, §3
A short description of data set [4]: Residual chlorine content of dried chlorinated N-halamine coatings on SS304 coupons. The following applies: for Estimated residual Cl (%): SS304 coupon. It counts as physicochemical. The method, then: HASA-Cl solutions were prepared according to procedures detailed in EXAMPLE 6 above. Stainless steel 304 (SS304) coupons with a dimension of 1″×1″ and thickness of 0.024″ were scrubbed with a sponge and 1% detergent (e.g., Liquinox®), rinsed with deionized water, and dried. To the dried SS304 coupons, a 1 mL sample of a HASA-Cl, HA-Cl, or electrophilic halogen solution was pipetted using a micropipette without rinsing or wiping the coupon after pipetting. The sample coupons coated with HASA-Cl HA-Cl, and electrophilic halogen sources, were stored at ambient temperature and humidity with indoor light exposure. […] HASA/HOCl solutions with high stoichiometric molar amounts of HASA (2:1 HASA:HOCl and 1:1 HASA:HOCl) formed coatings with a flaked dried polymer appearance, while the other solutions formed coatings with a stain-like appearance with a majority of the SS304 base substrate exposed.
To extract chlorine from the surface of a SS304 sample coupon, a sample coupon was added to a centrifuge tube containing 20 mL of deionized water, 200 mg of K1, and 10 drops of 4N acetic acid. The mixture containing the sample coupon was mixed by shaking (e.g. at 120 rpm for 10 minutes), and solution removed and added to a glass sample cell for analysis by spectrophotometry with a DPD indicator according to the procedure detailed above. The amount of chlorine was calculated against a chlorine standard curve. Chlorine density was calculated according to the following formula: […]
The bars are presented in the order Day 1, Day 2, Day 3, Day 7, and Day 28. […] At 28 days, the chlorine density of HASA/HOCl and HA/HOCl solutions decreased, to around half of the Day 1 chlorine density. […] Estimated residual chlorine percentages were calculated from the ratio of the amount of chlorine retrieved from the dried coating over the amount of chlorine deposited in the 1 mL solution. TABLE 19 summarizes the estimated residual chlorine percentages of HA/HOCl and HASA/HOCl solutions over the 28 days. Estimated residual chlorine percentages were stable for up to 1 week for HASA/HOCl solutions with stoichiometric molar ratios of HASA:HOCl higher than 1:2, aligning with the chlorine density data.

Data set [5] in a line: Chlorine stability of chlorinated HA and HASA55 solutions over 10 weeks (available chlorine, DPD). Type of data set: physicochemical. The method, then:
as §4

[6] abbreviates: 5% FBS organic load, 30 seconds (Table 18).
The mark [7] stands for this setting: Exp 1, 5 FBS organic load, 30 seconds, 8.34 log inoculum, ppm chlorine.
Setting [8] is: Exp 2, 5 FBS organic load, 30 seconds, 8.37 log inoculum.
[9] abbreviates: Exp 1, 5 FBS organic load, 30 seconds, 8.34 log inoculum.

As to `OCl` [HOCl, hypochlorous acid], the MIC value in the data set on S. aureus [1] (setting [6]) came out at 150 ppm; in the data set on S. aureus [1] (10% FBS, 1 min), 300 ppm; against S. aureus [1] (10% FBS, 5 min), 100 ppm; in the data set on S. aureus [1] (15% FBS, 1 min) it was 300 ppm; against S. aureus [1] (15% FBS, 5 min), 200 ppm; with S. aureus [1] (setting [7]) it was 150 ppm. This molecule also came in with an MIC value in the data set on S. aureus [1] (setting [8]) of 100 ppm. Also, the “pH over time (in words)” value in data set [2] is on record as “stable pH”. The MBC value worked out at 150 ppm against S. aureus [3] (setting [6]); 300 ppm with S. aureus [3] (10% FBS, 1 min); 200 ppm in the data set with S. aureus [3] (10% FBS, 5 min); 300 ppm against S. aureus [3] (15% FBS, 1 min); 300 ppm with S. aureus [3] (15% FBS, 5 min); 150 ppm in the data set on S. aureus [3] (setting [9]). In addition, the MBC value in the data set on S. aureus [3] (setting [8]) was determined as 100 ppm. The “Estimated residual Cl (%)” value is on record as 0.1% in data set [4] (1 mL deposited, Day 1); 0.2% in data set [4] (Day 2); 0.3% in data set [4] (Day 3); 0.1% in data set [4] (Day 7); 0.2% in data set [4] (Day 28). Further, in data set [4] (SS304 coupons, Day 1), the “residual chlorine density (in words)” value is on record as “no residual chlorine density”. Moreover, in data set [5] (HOCl series, 10 week period), the “chlorine loss (in words)” value is “lowest chlorine loss”. For the same molecule, the available chlorine in data set [5] (HOCl series, Day 0) is listed as 707 mg/L; in data set [5] (HOCl series, W 0) it was 727 mg/L; in data set [5] (HOCl series, W 4) it was 687 mg/L; in data set [5] (HOCl series, W 6), 637 mg/L; in data set [5] (HOCl series, W 10) it was 607 mg/L; in data set [5] (NaOCl series, Day 0), 1443. The available chlorine in data set [5] (NaOCl series, W 1) is given as 1447; in data set [5] (NaOCl series, W 3) it was 1443; in data set [5] (NaOCl series, W 6), 1520; in data set [5] (NaOCl series, W 10), 1537.
Turning to `O=c1nc([O-])n(Cl)c(=O)n1Cl.[Na+]` [NaDCC, sodium dichloroisocyanurate], the MIC value with S. aureus [1] (setting [6]) was 100 ppm; with S. aureus [1] (10% FBS, 1 min) it was 200 ppm; against S. aureus [1] (10% FBS, 5 min) it was 200 ppm; against S. aureus [1] (15% FBS, 1 min), 300 ppm; in the data set with S. aureus [1] (15% FBS, 5 min), 200 ppm; in the data set with S. aureus [1] (setting [7]), 150 ppm. The same molecule yielded an MIC value in the data set with S. aureus [1] (setting [8]) of 100 ppm. Besides, the MBC value against S. aureus [3] (setting [6]) is 150 ppm; with S. aureus [3] (10% FBS, 1 min), 200 ppm; in the data set on S. aureus [3] (10% FBS, 5 min), 200 ppm; against S. aureus [3] (15% FBS, 1 min), 300 ppm; with S. aureus [3] (15% FBS, 5 min) it was 200 ppm; in the data set with S. aureus [3] (setting [9]), 150 ppm. This molecule also displayed an MBC value against S. aureus [3] (setting [8]) of 150 ppm. Moreover, the “available chlorine over time (in words)” value in data set [5] (NaDCC series, 6-week time period) is given as “low available chlorine levels”. Further, the available chlorine in data set [5] (NaDCC series, Day 0) is 1120; in data set [5] (NaDCC series, W 1), 967; in data set [5] (NaDCC series, W 3), 753; in data set [5] (NaDCC series, W 6) it was 530; in data set [5] (NaDCC series, W 10), 330.
One may read the MIC as the least concentration at which growth counts as inhibited. A higher MIC goes with weaker potency. One may read the MBC as the smallest concentration meeting the test's criterion for killing. Consider `OCl` [NaOCl, sodium hypochlorite], for which the MIC in the data set with S. aureus [1] (setting [6]) was 200 µg/mL; in the data set on S. aureus [1] (1 min, 10% FBS) it was 400 µg/mL; with S. aureus [1] (1 min, 15% FBS), 500 µg/mL; in the data set with S. aureus [1] (5 min, 10% FBS) it was 100 µg/mL; in the data set on S. aureus [1] (5 min, 15% FBS), 100 µg/mL; against S. aureus [1] (setting [7]), 100 µg/mL. This molecule also gave an MIC in the data set with S. aureus [1] (setting [8]) of 100 µg/mL. Besides, the MBC value in the data set on S. aureus [3] (setting [8]) is reported as 250 ppm. For the same molecule, the MBC was 200 µg/mL against S. aureus [3] (setting [6]); 400 µg/mL against S. aureus [3] (1 min, 10% FBS); 500 µg/mL against S. aureus [3] (1 min, 15% FBS); 200 µg/mL in the data set on S. aureus [3] (5 min, 10% FBS); 400 µg/mL in the data set with S. aureus [3] (5 min, 15% FBS); 200 µg/mL in the data set with S. aureus [3] (setting [9]). In data set [5] (NaOCl series), the “chlorine levels and pH over time (in words)” value is “no chlorine loss and no change in pH”.
